Results published in US20240226117A1, “TREATMENT OF CONGENITAL ADRENAL HYPOPLASIA” (ReveraGen BioPharma, Inc., priority 2021, published 2024).

Columns and labels:
[1] = system: ambulant boys with DMD; assay: VBP15-004 growth (height Z score); type: in vivo, human
[2] = target: T1, mineralocorticoid receptor (Homo sapiens, UniProt P08235); settings: background statement; cited from earlier work
T1 sequence (P08235 1-984): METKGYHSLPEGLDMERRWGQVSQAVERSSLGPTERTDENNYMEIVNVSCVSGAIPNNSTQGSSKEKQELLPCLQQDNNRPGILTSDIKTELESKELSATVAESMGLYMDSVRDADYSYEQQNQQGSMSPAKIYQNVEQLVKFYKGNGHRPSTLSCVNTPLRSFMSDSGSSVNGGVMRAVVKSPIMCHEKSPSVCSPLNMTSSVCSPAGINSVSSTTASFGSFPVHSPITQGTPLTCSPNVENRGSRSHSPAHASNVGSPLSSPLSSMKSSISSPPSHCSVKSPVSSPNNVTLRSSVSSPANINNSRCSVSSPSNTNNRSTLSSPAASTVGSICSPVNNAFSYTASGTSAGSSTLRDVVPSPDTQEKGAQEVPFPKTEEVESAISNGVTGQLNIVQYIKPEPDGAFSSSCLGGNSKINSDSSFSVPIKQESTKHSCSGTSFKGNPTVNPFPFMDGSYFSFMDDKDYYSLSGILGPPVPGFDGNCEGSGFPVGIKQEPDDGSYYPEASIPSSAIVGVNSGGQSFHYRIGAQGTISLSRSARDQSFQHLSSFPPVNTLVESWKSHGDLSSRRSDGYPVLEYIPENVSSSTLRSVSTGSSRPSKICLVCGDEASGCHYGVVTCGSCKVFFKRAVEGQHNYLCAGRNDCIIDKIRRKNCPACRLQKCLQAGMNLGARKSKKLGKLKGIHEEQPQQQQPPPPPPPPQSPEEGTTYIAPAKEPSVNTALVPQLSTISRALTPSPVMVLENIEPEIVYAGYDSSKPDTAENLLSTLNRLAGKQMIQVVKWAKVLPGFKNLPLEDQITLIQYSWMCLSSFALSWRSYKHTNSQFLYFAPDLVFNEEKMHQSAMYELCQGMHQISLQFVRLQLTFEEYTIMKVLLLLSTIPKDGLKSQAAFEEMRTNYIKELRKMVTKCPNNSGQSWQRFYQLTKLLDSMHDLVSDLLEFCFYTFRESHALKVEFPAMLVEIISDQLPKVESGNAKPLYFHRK

[3] = target: T2, glucocorticoid receptor (Homo sapiens, UniProt P04150); settings: background statement; cited from earlier work
T2 sequence (P04150 1-777): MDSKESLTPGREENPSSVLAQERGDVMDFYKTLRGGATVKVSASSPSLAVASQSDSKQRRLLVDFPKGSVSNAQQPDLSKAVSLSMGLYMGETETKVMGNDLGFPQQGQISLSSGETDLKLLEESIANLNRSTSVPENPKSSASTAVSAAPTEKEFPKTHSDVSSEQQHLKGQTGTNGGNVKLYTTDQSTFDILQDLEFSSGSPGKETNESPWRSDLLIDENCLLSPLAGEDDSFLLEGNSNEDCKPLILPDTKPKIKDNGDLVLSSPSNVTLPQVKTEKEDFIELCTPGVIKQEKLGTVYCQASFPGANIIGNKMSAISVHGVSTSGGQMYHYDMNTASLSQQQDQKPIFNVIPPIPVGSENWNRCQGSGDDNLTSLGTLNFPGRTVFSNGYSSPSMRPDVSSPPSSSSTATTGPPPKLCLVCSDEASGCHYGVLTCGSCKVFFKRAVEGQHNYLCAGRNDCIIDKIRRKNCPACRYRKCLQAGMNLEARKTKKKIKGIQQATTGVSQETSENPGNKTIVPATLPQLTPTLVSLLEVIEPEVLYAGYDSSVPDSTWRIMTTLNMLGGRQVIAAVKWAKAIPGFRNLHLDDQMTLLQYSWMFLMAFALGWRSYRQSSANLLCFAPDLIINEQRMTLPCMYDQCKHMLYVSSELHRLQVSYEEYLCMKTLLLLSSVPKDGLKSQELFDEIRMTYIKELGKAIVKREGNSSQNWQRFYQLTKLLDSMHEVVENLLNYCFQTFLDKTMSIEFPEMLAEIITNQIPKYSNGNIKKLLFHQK

With `C[C@@H]1C[C@H]2[C@@H]3CCC4=CC(=O)C=C[C@]4(C)C3=CC[C@]2(C)[C@@]1(O)C(=O)CO` [Vamorolone, 17α,21-dihydroxy-16α-methylpregna-1,4,9(11)-triene-3,20-dione] as the compound, how does the “change in height Z scores from baseline to Week 24” value ([1]; vamorolone 2.0 mg/kg/day) read?
Its value is “overall stable height change Z scores”.

And the “change in height Z scores from baseline to Week 24” value ([1]; vamorolone 6.0 mg/kg/day, p=0.02 versus prednisone)?
The value was “increased growth rate”.

What about the “activity at the mineralocorticoid receptor” value [2] of the same compound?
Its value is “potent antagonist”.

What about the “binding to the glucocorticoid receptor” value [3] of the same compound?
Its value is “potently binds”.
